Source: the NIST ThermoML archive (doi:10.1016/j.jct.2010.08.010)

Settings: Liquid, Buoyancy - hydrostatic balance with magnetic suspension - one sinker

Cc1ccccc1 [toluene]
Settings | mass density [kg/m3]
233.15 K, 101.25 kPa | 922.207
233.15 K, 1055.6 kPa | 922.722
233.15 K, 1861.3 kPa | 923.156
233.15 K, 3871.1 kPa | 924.223
233.15 K, 5873.9 kPa | 925.287
233.15 K, 8031.1 kPa | 926.415
233.15 K, 9906.5 kPa | 927.392
233.15 K, 11973 kPa | 928.445
233.15 K, 13947 kPa | 929.451
233.15 K, 15971 kPa | 930.461
233.15 K, 18029 kPa | 931.487
233.15 K, 19921 kPa | 932.422
233.15 K, 22000 kPa | 933.432
233.15 K, 24029 kPa | 934.411
233.15 K, 25833 kPa | 935.279
233.15 K, 27876 kPa | 936.25
233.15 K, 29776 kPa | 937.146
253.15 K, 102.01 kPa | 903.705
253.15 K, 1102.6 kPa | 904.316
253.15 K, 1837.1 kPa | 904.762
253.15 K, 3915.8 kPa | 906
253.15 K, 6024.3 kPa | 907.237
253.15 K, 7905.8 kPa | 908.333
253.15 K, 9884.5 kPa | 909.467
253.15 K, 11995 kPa | 910.665
253.15 K, 13975 kPa | 911.777
253.15 K, 15951 kPa | 912.877
253.15 K, 17978 kPa | 913.989
253.15 K, 20022 kPa | 915.098
253.15 K, 21921 kPa | 916.119
253.15 K, 24088 kPa | 917.274
253.15 K, 25990 kPa | 918.275
253.15 K, 27827 kPa | 919.23
253.15 K, 29746 kPa | 920.223
273.15 K, 97.87 kPa | 885.25
273.15 K, 1027.8 kPa | 885.881
273.15 K, 1996.9 kPa | 886.534
273.15 K, 4081.7 kPa | 887.926
273.15 K, 5913.4 kPa | 889.129
273.15 K, 8004.2 kPa | 890.482
273.15 K, 9932.4 kPa | 891.714
273.15 K, 11880 kPa | 892.948
273.15 K, 13888 kPa | 894.195
273.15 K, 16098 kPa | 895.56
273.15 K, 18099 kPa | 896.771
273.15 K, 19969 kPa | 897.897
273.15 K, 21860 kPa | 899.011
273.15 K, 23914 kPa | 900.215
273.15 K, 25980 kPa | 901.41
273.15 K, 28070 kPa | 902.607
273.15 K, 30123 kPa | 903.766
293.15 K, 99.87 kPa | 866.733
293.15 K, 101.56 kPa | 866.808
293.15 K, 1103.1 kPa | 867.572
293.15 K, 1127.8 kPa | 867.518
293.15 K, 1967 kPa | 868.206
293.15 K, 2003.6 kPa | 868.257
293.15 K, 2021.4 kPa | 868.196
293.15 K, 3955.9 kPa | 869.643
293.15 K, 4003.3 kPa | 869.731
293.15 K, 4004.5 kPa | 869.753
293.15 K, 5995 kPa | 871.216
293.15 K, 6031.6 kPa | 871.224
293.15 K, 6107.1 kPa | 871.23
293.15 K, 8032.8 kPa | 872.623
293.15 K, 8164.1 kPa | 872.766
293.15 K, 8180.3 kPa | 872.799
293.15 K, 9984.8 kPa | 874.014
293.15 K, 10008 kPa | 874.081
293.15 K, 10026 kPa | 874.114
293.15 K, 12005 kPa | 875.479
293.15 K, 12114 kPa | 875.512
293.15 K, 12190 kPa | 875.631
293.15 K, 13874 kPa | 876.778
293.15 K, 13947 kPa | 876.779
293.15 K, 14049 kPa | 876.921
293.15 K, 15849 kPa | 878.081
293.15 K, 16015 kPa | 878.24
293.15 K, 16153 kPa | 878.35
293.15 K, 17969 kPa | 879.506
293.15 K, 18022 kPa | 879.584
293.15 K, 18058 kPa | 879.633
293.15 K, 19969 kPa | 880.88
293.15 K, 19990 kPa | 880.848
293.15 K, 20012 kPa | 880.925
293.15 K, 21348 kPa | 881.783
293.15 K, 21972 kPa | 882.207
293.15 K, 22236 kPa | 882.319
293.15 K, 23457 kPa | 883.155
293.15 K, 23981 kPa | 883.441
293.15 K, 24105 kPa | 883.586
293.15 K, 25005 kPa | 884.147
293.15 K, 25908 kPa | 884.671
293.15 K, 26066 kPa | 884.837
293.15 K, 27839 kPa | 885.935
293.15 K, 27990 kPa | 885.976
293.15 K, 28091 kPa | 886.104
293.15 K, 28372 kPa | 886.271
293.15 K, 29914 kPa | 887.239
293.15 K, 30011 kPa | 887.242
313.15 K, 100.25 kPa | 848.035
313.15 K, 1103.1 kPa | 848.903
313.15 K, 2030.6 kPa | 849.693
313.15 K, 3897.3 kPa | 851.277
313.15 K, 6141.8 kPa | 853.137
313.15 K, 7925.2 kPa | 854.59
313.15 K, 9859 kPa | 856.142
313.15 K, 11935 kPa | 857.774
313.15 K, 13950 kPa | 859.327
313.15 K, 16069 kPa | 860.941
313.15 K, 17874 kPa | 862.289
313.15 K, 19838 kPa | 863.738
313.15 K, 22114 kPa | 865.383
313.15 K, 24097 kPa | 866.799
313.15 K, 25913 kPa | 868.068
313.15 K, 28005 kPa | 869.523
313.15 K, 29966 kPa | 870.863
333.15 K, 98.96 kPa | 829.055
333.15 K, 1101 kPa | 830.042
333.15 K, 2134.3 kPa | 831.05
333.15 K, 4003.8 kPa | 832.841
333.15 K, 6105.7 kPa | 834.814
333.15 K, 8005 kPa | 836.556
